Calls of active or inactive are those of the source. How the calls were made is not given here.
Tested on: CCRIS mutagenicity, Ames/micronucleus/aberration tests
Test: CCRIS mutagenicity studies
[1] = Test System: AMES SALMONELLA TYPHIMURIUM, Strain/Indicator: TA100, Metabolic Activation: NONE, Method: PREINCUBATION
[2] = Test System: AMES SALMONELLA TYPHIMURIUM, Strain/Indicator: TA100, Metabolic Activation: RAT, LIVER, S-9, AROCLOR 1254, Method: STANDARD PLATE
[3] = Test System: AMES SALMONELLA TYPHIMURIUM, Strain/Indicator: TA98, Metabolic Activation: HAMSTER, LIVER, S-9, AROCLOR 1254 (10%), Method: PREINCUBATION
[4] = Test System: AMES SALMONELLA TYPHIMURIUM, Strain/Indicator: TA98, Metabolic Activation: NONE, Method: PREINCUBATION
[5] = Test System: AMES SALMONELLA TYPHIMURIUM, Strain/Indicator: TA98, Metabolic Activation: RAT, LIVER, S-9, AROCLOR 1254 (10%), Method: PREINCUBATION
[6] = Test System: AMES SALMONELLA TYPHIMURIUM, Strain/Indicator: TA100, Metabolic Activation: HAMSTER, LIVER, S-9, AROCLOR 1254 (10%), Method: PREINCUBATION
[7] = Test System: AMES SALMONELLA TYPHIMURIUM, Strain/Indicator: TA100, Metabolic Activation: RAT, LIVER, S-9, AROCLOR 1254 (10%), Method: PREINCUBATION
[8] = Test System: AMES SALMONELLA TYPHIMURIUM, Strain/Indicator: TA1535, Metabolic Activation: HAMSTER, LIVER, S-9, AROCLOR 1254 (10%), Method: PREINCUBATION
[9] = Test System: AMES SALMONELLA TYPHIMURIUM, Strain/Indicator: TA1535, Metabolic Activation: NONE, Method: PREINCUBATION
[10] = Test System: AMES SALMONELLA TYPHIMURIUM, Strain/Indicator: TA1535, Metabolic Activation: RAT, LIVER, S-9, AROCLOR 1254 (10%), Method: PREINCUBATION
[11] = Test System: AMES SALMONELLA TYPHIMURIUM, Strain/Indicator: TA1537, Metabolic Activation: HAMSTER, LIVER, S-9, AROCLOR 1254 (10%), Method: PREINCUBATION
[12] = Test System: AMES SALMONELLA TYPHIMURIUM, Strain/Indicator: TA1537, Metabolic Activation: NONE, Method: PREINCUBATION
[13] = Test System: AMES SALMONELLA TYPHIMURIUM, Strain/Indicator: TA1537, Metabolic Activation: RAT, LIVER, S-9, AROCLOR 1254 (10%), Method: PREINCUBATION

CCOc1ccc(N=O)cc1
mutagenic call (Test System: AMES SALMONELLA TYPHIMURIUM, Strain/Indicator: TA98, Metabolic Activation: NONE, Method: STANDARD PLATE): active; positive | mutagenic call (Test System: AMES SALMONELLA TYPHIMURIUM, Strain/Indicator: TA98, Metabolic Activation: RAT, LIVER, S-9, AROCLOR 1254, Method: STANDARD PLATE): active; positive | mutagenic call (Test System: AMES SALMONELLA TYPHIMURIUM, Strain/Indicator: TA100(NR), Metabolic Activation: NONE, Method: PREINCUBATION): active; positive | mutagenic call (Test System: AMES SALMONELLA TYPHIMURIUM, Strain/Indicator: TA100(NR), Metabolic Activation: NONE, Method: STANDARD PLATE): active; positive | mutagenic call (Test System: AMES SALMONELLA TYPHIMURIUM, Strain/Indicator: TA100(NR), Metabolic Activation: RAT, LIVER, S-9, AROCLOR 1254, Method: PREINCUBATION): active; positive | mutagenic call (Test System: AMES SALMONELLA TYPHIMURIUM, Strain/Indicator: TA100(NR), Metabolic Activation: RAT, LIVER, S-9, AROCLOR 1254, Method: STANDARD PLATE): active; positive | mutagenic call (Test System: AMES SALMONELLA TYPHIMURIUM, Strain/Indicator: TA100, Metabolic Activation: HAMSTER, LIVER, S-9, KANECHLOR 400, Method: PREINCUBATION): active; positive | mutagenic call [1]: active; positive | mutagenic call (Test System: AMES SALMONELLA TYPHIMURIUM, Strain/Indicator: TA100, Metabolic Activation: NONE, Method: STANDARD PLATE): active; positive | mutagenic call (Test System: AMES SALMONELLA TYPHIMURIUM, Strain/Indicator: TA100, Metabolic Activation: RAT, LIVER, S-9, AROCLOR 1254, Method: PREINCUBATION): active; positive | mutagenic call [2]: active; positive | mutagenic call (Test System: AMES SALMONELLA TYPHIMURIUM, Strain/Indicator: TA100TN5-1,8-DNP1011, Metabolic Activation: NONE, Method: PREINCUBATION): active; positive | mutagenic call (Test System: AMES SALMONELLA TYPHIMURIUM, Strain/Indicator: TA100TN5-1,8-DNP1011, Metabolic Activation: NONE, Method: STANDARD PLATE): active; positive | mutagenic call (Test System: AMES SALMONELLA TYPHIMURIUM, Strain/Indicator: TA100TN5-1,8-DNP1011, Metabolic Activation: RAT, LIVER, S-9, AROCLOR 1254, Method: PREINCUBATION): active; positive | mutagenic call (Test System: AMES SALMONELLA TYPHIMURIUM, Strain/Indicator: TA100TN5-1,8-DNP1011, Metabolic Activation: RAT, LIVER, S-9, AROCLOR 1254, Method: STANDARD PLATE): active; positive | mutagenic call (Test System: AMES SALMONELLA TYPHIMURIUM, Strain/Indicator: TA100TN5-1,8-DNP1012, Metabolic Activation: NONE, Method: PREINCUBATION): active; positive | mutagenic call (Test System: AMES SALMONELLA TYPHIMURIUM, Strain/Indicator: TA100TN5-1,8-DNP1012, Metabolic Activation: NONE, Method: STANDARD PLATE): active; positive | mutagenic call (Test System: AMES SALMONELLA TYPHIMURIUM, Strain/Indicator: TA100TN5-1,8-DNP1012, Metabolic Activation: RAT, LIVER, S-9, AROCLOR 1254, Method: PREINCUBATION): active; positive | mutagenic call (Test System: AMES SALMONELLA TYPHIMURIUM, Strain/Indicator: TA100TN5-1,8-DNP1012, Metabolic Activation: RAT, LIVER, S-9, AROCLOR 1254, Method: STANDARD PLATE): active; positive

CCCCC(CC)CO (stereo not given)
mutagenic call [3]: inactive; negative | mutagenic call [4]: inactive; negative | mutagenic call (Test System: AMES SALMONELLA TYPHIMURIUM, Strain/Indicator: TA98, Metabolic Activation: RAT LIVER S-9, PHENOBARBITAL AND BETA-NAPHTHOFLAVONE, Method: PREINCUBATION): inactive; negative | mutagenic call [5]: inactive; negative | mutagenic call (Test System: AMES SALMONELLA TYPHIMURIUM, Strain/Indicator: TA98, Metabolic Activation: RAT, LIVER, S-9, KC 500, Method: PREINCUBATION): inactive; negative | mutagenic call [6]: inactive; negative | mutagenic call [1]: inactive; negative | mutagenic call (Test System: AMES SALMONELLA TYPHIMURIUM, Strain/Indicator: TA100, Metabolic Activation: RAT LIVER S-9, PHENOBARBITAL AND BETA-NAPHTHOFLAVONE, Method: PREINCUBATION): inactive; negative | mutagenic call [7]: inactive; negative | mutagenic call (Test System: AMES SALMONELLA TYPHIMURIUM, Strain/Indicator: TA100, Metabolic Activation: RAT, LIVER, S-9, KC 500, Method: PREINCUBATION): inactive; negative | mutagenic call [8]: inactive; negative | mutagenic call [9]: inactive; negative | mutagenic call (Test System: AMES SALMONELLA TYPHIMURIUM, Strain/Indicator: TA1535, Metabolic Activation: RAT LIVER S-9, PHENOBARBITAL AND BETA-NAPHTHOFLAVONE, Method: PREINCUBATION): inactive; negative | mutagenic call [10]: inactive; negative | mutagenic call (Test System: AMES SALMONELLA TYPHIMURIUM, Strain/Indicator: TA1535, Metabolic Activation: RAT, LIVER, S-9, KC 500, Method: PREINCUBATION): inactive; negative | mutagenic call [11]: inactive; negative | mutagenic call [12]: inactive; negative | mutagenic call (Test System: AMES SALMONELLA TYPHIMURIUM, Strain/Indicator: TA1537, Metabolic Activation: RAT LIVER S-9, PHENOBARBITAL AND BETA-NAPHTHOFLAVONE, Method: PREINCUBATION): inactive; negative | mutagenic call [13]: inactive; negative | mutagenic call (Test System: AMES SALMONELLA TYPHIMURIUM, Strain/Indicator: TA1537, Metabolic Activation: RAT, LIVER, S-9, KC 500, Method: PREINCUBATION): inactive; negative | mutagenic call (Test System: AMES SALMONELLA TYPHIMURIUM, Strain/Indicator: TA1538, Metabolic Activation: NONE, Method: PREINCUBATION): inactive; negative | mutagenic call (Test System: AMES SALMONELLA TYPHIMURIUM, Strain/Indicator: TA1538, Metabolic Activation: RAT, LIVER, S-9, KC 500, Method: PREINCUBATION): inactive; negative | mutagenic call (Test System: E. COLI, Strain/Indicator: WP2 UVRA, Metabolic Activation: NONE, Method: PREINCUBATION): inactive; negative | mutagenic call (Test System: E. COLI, Strain/Indicator: WP2UVRA, Metabolic Activation: NONE, Method: PREINCUBATION): inactive; negative | mutagenic call (Test System: E. COLI, Strain/Indicator: WP2UVRA, Metabolic Activation: RAT LIVER S-9, PHENOBARBITAL AND BETA-NAPHTHOFLAVONE, Method: PREINCUBATION): inactive; negative | mutagenic call (Test System: E. COLI, Strain/Indicator: WP2 UVRA, Metabolic Activation: RAT, LIVER, S-9, KC 500, Method: PREINCUBATION): inactive; negative

CC(C)(C)C(=O)C1C(=O)c2ccccc2C1=O
mutagenic call [3]: inactive; negative | mutagenic call [4]: inactive; negative | mutagenic call [5]: inactive; negative | mutagenic call [6]: inactive; negative | mutagenic call [1]: inactive; negative | mutagenic call [7]: inactive; negative | mutagenic call [8]: inactive; negative | mutagenic call [9]: inactive; negative | mutagenic call [10]: inactive; negative | mutagenic call [11]: inactive; negative | mutagenic call [12]: inactive; negative | mutagenic call [13]: inactive; negative

C=CC(=O)OCC (tested in a mixture with another compound)
mutagenic call [2]: active; positive | mutagenic call (Test System: AMES SALMONELLA TYPHIMURIUM, Strain/Indicator: TA1535, Metabolic Activation: RAT, LIVER, S-9, AROCLOR 1254, Method: STANDARD PLATE): active; positive | mutagenic call (Test System: AMES SALMONELLA TYPHIMURIUM, Strain/Indicator: TA1538, Metabolic Activation: RAT, LIVER, S-9, AROCLOR 1254, Method: STANDARD PLATE): inactive; negative

Reference: PubChem BioAssay AID1259407 (Chemical Carcinogenesis Research Information System (CCRIS), 2018)
